From patent US10717716B2, “1,3,4-oxadiazole derivative compounds as histone deacetylase 6 inhibitor, and the pharmaceutical composition comprising the same” (Chong Kun Dang Pharmaceutical Corp., priority 2015, dated 2020) come the findings set out here.

Structures are written as SMILES.

In this test the target is T1, human recombinant HDAC6 (Homo sapiens, UniProt Q9UBN7).
T1 construct: purchased Calbiochem 382180
T1 sequence (Q9UBN7 1-1215): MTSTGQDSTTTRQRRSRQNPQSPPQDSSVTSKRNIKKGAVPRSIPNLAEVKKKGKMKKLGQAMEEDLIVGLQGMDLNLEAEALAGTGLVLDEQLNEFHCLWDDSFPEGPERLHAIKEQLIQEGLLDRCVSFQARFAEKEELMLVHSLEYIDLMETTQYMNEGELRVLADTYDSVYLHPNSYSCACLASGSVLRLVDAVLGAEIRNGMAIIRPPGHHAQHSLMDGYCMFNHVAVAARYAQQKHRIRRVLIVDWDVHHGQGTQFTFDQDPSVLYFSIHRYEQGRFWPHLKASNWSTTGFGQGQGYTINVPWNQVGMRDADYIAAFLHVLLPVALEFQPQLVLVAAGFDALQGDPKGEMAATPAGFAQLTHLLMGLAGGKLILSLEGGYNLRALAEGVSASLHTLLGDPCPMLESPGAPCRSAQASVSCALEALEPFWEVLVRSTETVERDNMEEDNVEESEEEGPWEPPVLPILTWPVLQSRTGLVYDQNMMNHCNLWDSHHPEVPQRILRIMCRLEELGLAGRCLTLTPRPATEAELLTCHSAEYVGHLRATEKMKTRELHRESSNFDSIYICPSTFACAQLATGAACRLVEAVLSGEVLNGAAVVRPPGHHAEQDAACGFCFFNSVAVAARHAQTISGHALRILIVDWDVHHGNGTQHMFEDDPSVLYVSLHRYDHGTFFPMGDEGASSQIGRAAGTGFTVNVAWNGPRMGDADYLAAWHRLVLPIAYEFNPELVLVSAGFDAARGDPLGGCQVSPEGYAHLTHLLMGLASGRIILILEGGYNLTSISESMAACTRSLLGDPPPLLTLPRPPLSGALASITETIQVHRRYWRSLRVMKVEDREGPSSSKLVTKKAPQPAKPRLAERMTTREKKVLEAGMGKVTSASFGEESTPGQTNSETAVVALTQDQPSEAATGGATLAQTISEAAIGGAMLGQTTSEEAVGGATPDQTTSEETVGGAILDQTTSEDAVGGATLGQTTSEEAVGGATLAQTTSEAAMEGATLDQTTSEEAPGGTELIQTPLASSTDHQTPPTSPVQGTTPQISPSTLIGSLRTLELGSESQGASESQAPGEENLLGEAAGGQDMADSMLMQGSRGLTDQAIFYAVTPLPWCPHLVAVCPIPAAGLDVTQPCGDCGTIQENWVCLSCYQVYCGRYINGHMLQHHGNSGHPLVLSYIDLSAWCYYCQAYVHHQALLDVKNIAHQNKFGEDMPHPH
The test can be described thus: HDAC6 enzyme activity inhibition assay (HDAC Fluorimetric Drug Discovery Kit). The test is classed as biochemical. The note with it: for HDAC6 selectivity (fold): HDAC6 over HDAC1; for IC50: human recombinant HDAC6, same protocol as HDAC1, read-out: HDAC6. In a few lines:
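Human recombinant HDAC1 or HDAC6 (0.3 μg) reacted with 10 μM Fluor de Lys-SIRT1 substrate and 5-fold compound dilutions for 60 min at 30 °C. Developer II added for 30 min, fluorescence read at Ex 360/Em 460; IC50 calculated from the readings.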

Take `O=C(NCCN1CCN(c2ccncc2)CC1)N(Cc1ccc(-c2nnc(C(F)F)o2)cc1F)c1ccccc1` [Compound 22009, 1-(4-(5-(Difluoromethyl)-1,3,4-oxadiazol-2-yl)-2-fluorobenzyl)-1-phenyl-3-(2-(4-(pyridin-4-yl)piperazin-1-yl)ethyl)urea]: the “HDAC6 selectivity (fold)” value is recorded as 97 fold and the IC50 came out at 103 nM.
In the same order, the values of `O=C(NCCN1CCN(c2ccc(F)cc2)CC1)N(Cc1ccc(-c2nnc(C(F)F)o2)cc1F)c1ccccc1` [Compound 22010, 1-(4-(5-(Difluoromethyl)-1,3,4-oxadiazol-2-yl)-2-fluorobenzyl)-3-(2-(4-(4-fluorophenyl)piperazin-1-yl)ethyl)-1-phenylurea] are 29 fold and 341 nM.
Turning to `O=C(NCCN1CCN(c2noc3ccccc23)CC1)N(Cc1ccc(-c2nnc(C(F)F)o2)cc1F)c1ccccc1` [Compound 22011, 3-(2-(4-(Benzo[d]isoxazol-3-yl)piperazin-1-yl)ethyl)-1-(4-(5-(difluoromethyl)-1,3,4-oxadiazol-2-yl)-2-fluorobenzyl)-1-phenylurea], the “HDAC6 selectivity (fold)” value is given as 31 fold and the IC50 was 320 nM.
`O=C(NCCN1CCN(c2ccc(Cl)c(Cl)c2)CC1)N(Cc1ccc(-c2nnc(C(F)F)o2)cc1F)c1ccccc1` [Compound 22012, 3-(2-(4-(3,4-Dichlorophenyl)piperazin-1-yl)ethyl)-1-(4-(5-(difluoromethyl)-1,3,4-oxadiazol-2-yl)-2-fluorobenzyl)-1-phenylurea]: the “HDAC6 selectivity (fold)” value was determined as 10 fold and the IC50 amounted to 1020 nM.
As for `O=C(NCCN1CCN(Cc2ccccc2)CC1)N(Cc1ccc(-c2nnc(C(F)F)o2)cc1F)c1ccccc1` [Compound 22013, 3-(2-(4-Benzylpiperazin-1-yl)ethyl)-1-(4-(5-(difluoromethyl)-1,3,4-oxadiazol-2-yl)-2-fluorobenzyl)-1-phenylurea], the “HDAC6 selectivity (fold)” value turned out to be 51 fold and the IC50 worked out at 197 nM.
In the same order, the values of `O=C(NCCN1CCN(CCc2ccccc2)CC1)N(Cc1ccc(-c2nnc(C(F)F)o2)cc1F)c1ccccc1` [Compound 22014, 1-(4-(5-(Difluoromethyl)-1,3,4-oxadiazol-2-yl)-2-fluorobenzyl)-3-(2-(4-phenethylpiperazin-1-yl)ethyl)-1-phenylurea] are 46 fold and 219 nM.
`O=C(NCCN1CCN(CCc2ccncc2)CC1)N(Cc1ccc(-c2nnc(C(F)F)o2)cc1F)c1ccccc1` [Compound 22015, 1-(4-(5-(Difluoromethyl)-1,3,4-oxadiazol-2-yl)-2-fluorobenzyl)-1-phenyl-3-(2-(4-(2-(pyridin-4-yl)ethyl)piperazin-1-yl)ethyl)urea]: the “HDAC6 selectivity (fold)” value is recorded as 105 fold and the IC50 was 95 nM.
In the same order, the values of `O=C(NCCN1CCN(C/C=C/c2ccccc2)CC1)N(Cc1ccc(-c2nnc(C(F)F)o2)cc1F)c1ccccc1` [Compound 22016, 3-(2-(4-Cinnamylpiperazin-1-yl)ethyl)-1-(4-(5-(difluoromethyl)-1,3,4-oxadiazol-2-yl)-2-fluorobenzyl)-1-phenylurea] are 42 fold and 237 nM.
In the same order, the values of `O=C(NCCN(Cc1ccccc1)Cc1ccccc1)N(Cc1ccc(-c2nnc(C(F)F)o2)cc1F)c1ccccc1` [Compound 22017, 3-(2-(Dibenzylamino)ethyl)-1-(4-(5-(difluoromethyl)-1,3,4-oxadiazol-2-yl)-2-fluorobenzyl)-1-phenylurea] are 7 fold and 1380 nM.
In the same order, the values of `O=C(N1CCOCC1)N(Cc1ccc(-c2nnc(C(F)F)o2)cc1F)c1nccs1` [Compound 22018, N-(4-(5-(Difluoromethyl)-1,3,4-oxadiazol-2-yl)-2-fluorobenzyl)-N-(thiazol-2-yl)morpholine-4-carboxamide] are 4 fold and 2390 nM.
